Assay results as given in US12478617B2, “Lipidated peptide inhibitors of interleukin-23 receptor” (JANSSEN BIOTECH, INC., priority 2021, dated 2025).
Starred links: 1 amine or outer side, 2 acyl side, 3 side chain; linkers in the order of their positions; H or OH if unused. Positions of bridges follow the written chain, without caps; N, C: chain ends. Non-standard residues stand in square brackets, D forms with d. Residues, ends and D or L forms follow the SMILES beside them. Groups on a side chain read outwards from the residue. *: point of attachment. X2 = C[N+](C)(CCNC(=O)COCCOCCNC(=O)COCCOCCNC(=O)CC[C@H](NC(=O)CCCCCCCCCCCCCCCCC(=O)O)C(=O)O)CC(=O)*; X5 = O=C(O)CCCCCCCCCCCCCCCCC(=O)N[C@@H](CCN*)C(=O)O; Trp(7-Me) = Cc1cccc2c(C[C@H](N)C(=O)O)c[nH]c12; C18 diacid = O=C(O)CCCCCCCCCCCCCCCCC(=O)*; C16 diacid = O=C(O)CCCCCCCCCCCCCCC(=O)*; γGlu = O=C(O)[C@H](CCC(=O)[*:2])N[*:1]; 2Nal = N[C@@H](Cc1ccc2ccccc2c1)C(=O)O; AEF = NCCOc1ccc(C[C@H](N)C(=O)O)cc1; Palmitoyl = CCCCCCCCCCCCCCCC(=O)*; 3Pal = N[C@@H](Cc1cccnc1)C(=O)O; Pen = CC(C)(S)[C@H](N)C(=O)O; Thp = NC1(C(=O)O)CCOCC1; AEEA = NCCOCCOCC(=O)O; Sar = CNCC(=O)O

These compounds were tested against T1, IL-23R (Homo sapiens, UniProt Q5VWK5) (assay: IL23R Reporter Assay).
T1 construct: HEK293 cells containing IL-23R, IL-12RP31 and a firefly luciferase reporter gene driven by a STAT-inducible promoter (Promega); host or cells: HEK293
T1 sequence (Q5VWK5 24-629): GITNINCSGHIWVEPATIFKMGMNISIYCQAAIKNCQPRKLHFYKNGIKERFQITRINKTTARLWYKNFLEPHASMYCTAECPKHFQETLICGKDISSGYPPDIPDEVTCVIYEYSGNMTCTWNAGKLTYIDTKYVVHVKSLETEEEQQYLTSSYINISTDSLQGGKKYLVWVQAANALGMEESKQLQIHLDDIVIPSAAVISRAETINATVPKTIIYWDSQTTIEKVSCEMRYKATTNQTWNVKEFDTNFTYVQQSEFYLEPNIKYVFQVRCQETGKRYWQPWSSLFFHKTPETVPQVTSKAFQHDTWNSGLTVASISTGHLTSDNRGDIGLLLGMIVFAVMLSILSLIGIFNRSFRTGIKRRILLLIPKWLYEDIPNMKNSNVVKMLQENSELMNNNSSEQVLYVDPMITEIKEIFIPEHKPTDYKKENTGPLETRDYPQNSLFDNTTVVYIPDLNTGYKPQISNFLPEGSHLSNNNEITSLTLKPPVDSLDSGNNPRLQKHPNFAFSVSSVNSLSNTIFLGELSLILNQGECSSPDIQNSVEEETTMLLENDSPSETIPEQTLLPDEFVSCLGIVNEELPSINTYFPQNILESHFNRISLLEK
Type: cell-based
Source text: IL-23 binding to IL-23 receptors results in the activation of the Signal Transducer and Activator of Transcription 3 (STAT3) by phosphorylation and downstream signaling events. Accordingly. the ability of the inhibitors described herein to block IL-23 action can be assessed by monitoring the status of STAT3 activation in response to IL-23. This may be accomplished in reporter cell assays or in intact cells such as peripheral blood mononuclear cells (PBMCs).
Compounds were serially diluted in 100% (v/v) DMSO) and plated using an Echo acoustic dispenser (Labcyte) into 1536-well non-treated black assay plates (Corning #9146). […] After 5 h at 37° C., 5% CO2, 95% relative humidity, cells were placed at 20° C. and treated with BioGlo reagent (Promega) according to the Manufacturer's instructions. Luminescence was measured on a Pherastar FSX (BMG LabTech).
With `CC(=O)NCCCC[C@@H]1NC(=O)[C@H](Cc2c[nH]c3c(C)cccc23)NC(=O)[C@H]([C@@H](C)O)NC(=O)[C@H](CC(N)=O)NC(=O)[C@@H](NC(=O)[C@@H](CCCNC(=N)N)NC(C)=O)C(C)(C)SSC(C)(C)[C@@H](C(=O)N[C@@H](Cc2ccc(OCCN)cc2)C(=O)N[C@@H](Cc2ccc3ccccc3c2)C(=O)NC2(C(=O)N[C@@H](CCCCNC(C)=O)C(=O)N[C@@H](CC(N)=O)C(=O)N[C@@H](Cc3cccnc3)C(=O)N(C)CC(=O)NCCOCCOCC(=O)NCCOCCOCC(=O)NCC[C@H](NC(=O)CCCCCCCCCCCCCCCCC(=O)O)C(=O)O)CCOCC2)NC1=O` [Example 129, MeCO-r-Pen*-N-T-7MeW-K(Ac)-Pen*-AEF-2Nal-THP-K(Ac)-N-3Pya-Sar-PEG2PEG2gDabC18OH-COOH] (Ac-[dR][Pen]NT[Trp(7-Me)]K(Ac)[Pen][AEF][2Nal][Thp]K(Ac)N[3Pal][Sar][AEEA][AEEA]-X5; disulfide 2-7) the IC50 was 0.24 nM.
For `CC(=O)NCCCC[C@@H]1NC(=O)[C@H](Cc2c[nH]c3c(C)cccc23)NC(=O)[C@H]([C@@H](C)O)NC(=O)[C@H](CC(N)=O)NC(=O)[C@@H](NC(C)=O)C(C)(C)SSC(C)(C)[C@@H](C(=O)N[C@@H](Cc2ccc(OCCN)cc2)C(=O)N[C@@H](Cc2ccc3ccccc3c2)C(=O)NC2(C(=O)N[C@@H](CCCCNC(=O)COCCOCCNC(=O)COCCOCCNC(=O)[C@@H]3CCCN3C(=O)[C@@H]3CCCN3C(=O)[C@@H]3CCCN3C(=O)CC[C@H](NC(=O)CCCCCCCCCCCCCCCCC(=O)O)C(=O)O)C(=O)N[C@@H](CC(N)=O)C(=O)N[C@@H](Cc3cccnc3)C(=O)N(C)CC(N)=O)CCOCC2)NC1=O` [Example 107, MeCO-Pen*-N-T-7MeW-K(Ac)-Pen*-AEF-2Nal-THP-K(PEG2PEG2PPPgEC18OH)-N-3Pya-Sar-CONH2], the IC50 was 0.09 nM.
`CCCCCCCCCCCCCCCC(=O)N[C@@H](CCC(=O)NCCCC[C@H](NC(=O)C1(NC(=O)[C@H](Cc2ccc3ccccc3c2)NC(=O)[C@H](Cc2ccc(OCCN)cc2)NC(=O)[C@H]2NC(=O)[C@H](CCCCNC(C)=O)NC(=O)[C@H](Cc3c[nH]c4c(C)cccc34)NC(=O)[C@H]([C@@H](C)O)NC(=O)[C@H](CC(N)=O)NC(=O)[C@@H](NC(C)=O)C(C)(C)SSC2(C)C)CCOCC1)C(=O)N[C@@H](CC(N)=O)C(=O)N[C@@H](Cc1cccnc1)C(=O)N(C)CC(N)=O)C(=O)O` [Example 75, MeCO-Pen*-N-T-7MeW-K(Ac)-Pen*-AEF-2Nal-THP-K(gEC16)-N-3Pya-Sar-CONH2] (Ac-[Pen]NT[Trp(7-Me)]K(Ac)[Pen][AEF][2Nal][Thp]K([γGlu-Palmitoyl])N[3Pal][Sar]-NH2; disulfide 1-6) gave an IC50 of 0.096 nM.
With `CC(=O)NCCCC[C@@H]1NC(=O)[C@H](Cc2c[nH]c3c(C)cccc23)NC(=O)[C@H]([C@@H](C)O)NC(=O)[C@H](CCCCNC(=O)COCCOCCNC(=O)COCCOCCNC(=O)[C@@H]2CCCN2C(=O)CC[C@H](NC(=O)CCCCCCCCCCCCCCCCC(=O)O)C(=O)O)NC(=O)[C@@H](NC(=O)[C@@H](CCCNC(=N)N)NC(C)=O)C(C)(C)SSC(C)(C)[C@@H](C(=O)N[C@@H](Cc2ccc(OCCN)cc2)C(=O)N[C@@H](Cc2ccc3ccccc3c2)C(=O)NC2(C(=O)N[C@@H](CCCCNC(C)=O)C(=O)N[C@@H](CC(N)=O)C(=O)N[C@@H](Cc3cccnc3)C(=O)N(C)CC(N)=O)CCOCC2)NC1=O` [Example 95, MeCO-r-Pen*-K(PEG2PEG2PgEC18OH)-T-7MeW-K(Ac)-Pen*-AEF-2Nal-THP-K(Ac)-N-3Pya-Sar-CONH2] (Ac-[dR][Pen]K([AEEA-AEEA-Pro-γGlu-C18 diacid])T[Trp(7-Me)]K(Ac)[Pen][AEF][2Nal][Thp]K(Ac)N[3Pal][Sar]-NH2; disulfide 2-7) the IC50 was 0.14 nM.
For `CC(=O)NCCCC[C@@H]1NC(=O)[C@H](Cc2c[nH]c3c(C)cccc23)NC(=O)[C@H]([C@@H](C)O)NC(=O)[C@H](CC(N)=O)NC(=O)[C@@H](NC(=O)[C@@H](CCCNC(=N)N)NC(C)=O)C(C)(C)SSC(C)(C)[C@@H](C(=O)N[C@@H](Cc2ccc(OCCN)cc2)C(=O)N[C@@H](Cc2ccc3ccccc3c2)C(=O)NC2(C(=O)N[C@@H](CCC(=O)O)C(=O)N[C@@H](CC(N)=O)C(=O)N[C@@H](Cc3cccnc3)C(=O)N(C)CC(=O)N[C@@H](CCCCNC(=O)COCCOCCNC(=O)COCCOCCNC(=O)CC[C@H](NC(=O)CCCCCCCCCCCCCCC(=O)O)C(=O)O)C(N)=O)CCOCC2)NC1=O` [Example 17, MeCO-r-Pen*-N-T-7MeW-K(Ac)-Pen*-AEF-2Nal-THP-E-N-3Pya-Sar-K(PEG2PEG2gEC16OH)-CONH2] (Ac-[dR][Pen]NT[Trp(7-Me)]K(Ac)[Pen][AEF][2Nal][Thp]EN[3Pal][Sar]K([AEEA-AEEA-γGlu-C16 diacid])-NH2; disulfide 2-7), the IC50 was 0.036 nM.
`CC(=O)NCCCC[C@@H]1NC(=O)[C@H](Cc2c[nH]c3c(C)cccc23)NC(=O)[C@H]([C@@H](C)O)NC(=O)[C@H](CC(N)=O)NC(=O)[C@@H](NC(C)=O)C(C)(C)SSC(C)(C)[C@@H](C(=O)N[C@@H](Cc2ccc(OCCN)cc2)C(=O)N[C@@H](Cc2ccc3ccccc3c2)C(=O)NC2(C(=O)N[C@@H](CCCCNC(=O)COCCOCCNC(=O)COCCOCCNC(=O)CC[C@H](NC(=O)[C@H](CNC(=O)CCCCCCCCCOc3cccc(C(=O)O)c3)NC(=O)CCCCCCCCCOc3cccc(C(=O)O)c3)C(=O)O)C(=O)N[C@@H](CC(N)=O)C(=O)N[C@@H](Cc3cccnc3)C(=O)N(C)CC(N)=O)CCOCC2)NC1=O` [Example 134, MeCO-Pen*-N-T-7MeW-K(Ac)-Pen*-AEF-2Nal-THP-K(PEG2PEG2gEDAP(mXOH)2)-N-3Pya-Sar-CONH2] showed an IC50 of 0.037 nM.
`CC(=O)NCCCC[C@@H]1NC(=O)[C@H](Cc2c[nH]c3c(C)cccc23)NC(=O)[C@H]([C@@H](C)O)NC(=O)[C@H](CC(N)=O)NC(=O)[C@@H](NC(=O)[C@@H](CCCNC(=N)N)NC(C)=O)C(C)(C)SSC(C)(C)[C@@H](C(=O)N[C@@H](Cc2ccc(OCCN)cc2)C(=O)N[C@@H](Cc2ccc3ccccc3c2)C(=O)NC2(C(=O)N[C@@H](CCCCNC(=O)COCCOCCNC(=O)COCCOCCNC(=O)[C@H]3CCCN3C(=O)CCCCCCCCCCCCCCCCC(=O)O)C(=O)N[C@@H](CC(N)=O)C(=O)N[C@@H](Cc3cccnc3)C(=O)N(C)CC(N)=O)CCOCC2)NC1=O` [Example 57, MeCO-r-Pen*-N-T-7MeW-K(Ac)-Pen*-AEF-2Nal-THP-K(PEG2PEG2pC18OH)-N-3Pya-Sar-CONH2] (Ac-[dR][Pen]NT[Trp(7-Me)]K(Ac)[Pen][AEF][2Nal][Thp]K([AEEA-AEEA-dP-C18 diacid])N[3Pal][Sar]-NH2; disulfide 2-7) gave an IC50 of 0.3 nM.
Work on `CC(=O)NCCCC[C@@H]1NC(=O)[C@H](Cc2c[nH]c3c(C)cccc23)NC(=O)[C@H]([C@@H](C)O)NC(=O)[C@H](CC(N)=O)NC(=O)[C@@H](NC(C)=O)C(C)(C)SSC(C)(C)[C@@H](C(=O)N[C@@H](Cc2ccc(OCCN)cc2)C(=O)N[C@@H](Cc2ccc3ccccc3c2)C(=O)NC2(C(=O)N[C@@H](CCCCNC(=O)COCCOCCNC(=O)COCCOCCNC(=O)CC[C@H](NC(=O)[C@H](CNC(=O)CCCCCCCCCCCCCCC(=O)O)NC(=O)CCCCCCCCCCCCCCC(=O)O)C(=O)O)C(=O)N[C@@H](CC(N)=O)C(=O)N[C@@H](Cc3cccnc3)C(=O)N(C)CC(N)=O)CCOCC2)NC1=O` [Example 116, MeCO-Pen*-N-T-7MeW-K(Ac)-Pen*-AEF-2Nal-THP-K(PEG2PEG2gE-DAP(C16OH)2)-N-3Pya-Sar-CONH2] yielded an IC50 of 0.15 nM.
Work on `CC(=O)NCCCC[C@@H]1NC(=O)[C@H](Cc2c[nH]c3c(C)cccc23)NC(=O)[C@H]([C@@H](C)O)NC(=O)[C@H](CC(N)=O)NC(=O)[C@@H](NC(C)=O)C(C)(C)SSC(C)(C)[C@@H](C(=O)N[C@@H](Cc2ccc(OCCN)cc2)C(=O)N[C@@H](Cc2ccc3ccccc3c2)C(=O)NC2(C(=O)N[C@@H](CCCCNC(=O)C[N+](C)(C)CCNC(=O)COCCOCCNC(=O)COCCOCCNC(=O)CC[C@H](NC(=O)CCCCCCCCCCCCCCCCC(=O)O)C(=O)O)C(=O)N[C@@H](CC(N)=O)C(=O)N[C@@H](Cc3cccnc3)C(=O)N(C)CC(N)=O)CCOCC2)NC1=O` [Example 124, MeCO-Pen*-N-T-7MeW-K(Ac)-Pen*-AEF-2Nal-THP-K(SP6 PEG2PEG2gE C18OH)-N-3Pya-Sar-CONH2] (Ac-[Pen]NT[Trp(7-Me)]K(Ac)[Pen][AEF][2Nal][Thp]K(X2)N[3Pal][Sar]-NH2; disulfide 1-6) yielded an IC50 of 0.083 nM.
